The values that follow come from patent US20240374573A1, “IMIDAZOLE CONTAINING COMPOUNDS, DERIVATIVES THEREFORE, AND USES THEREOF” (AglaeaPharma Inc., priority 2023, published 2024).

The subject of data set [1] is brain proteins. Briefly: in vitro. The settings on record: for % Undiluted Unbound (n = 3): brain homogenate. As for the experimental part: The initial preparation of the dialysis membrane involved thawing brain homogenate in a water bath at room temperature and subsequently heating it at 37° C. for 10 minutes. The dialysis setup utilized was from HT Dialysis LLC, featuring a HT-Dialysis plate (Model HTD 96 b) and a dialysis membrane with a molecular weight cutoff of 12-14 kDa.
The membrane underwent a comprehensive pretreatment which included hydration in ultra-pure water at room temperature for approximately one hour. This was followed by separation and immersion in a 20:80 ethanol:water solution for about 20 minutes. After this treatment, the membranes were either used immediately or stored at 2-8° C. for up to one month, with a final rinse in ultra-pure water prior to experimental use.
For compound preparation, test and control substances were first dissolved to create 400 μM working solutions by mixing 4 μL of stock solution with 96 μL of DMSO. These working solutions were then further diluted to 2 μM in a blank matrix by combining 3 μL of the prepared solution with 597 μL of matrix, ensuring thorough mixing.
During the assay, 50 μL aliquots of the 2 μM compound-matrix mixture were dispensed in triplicate into a Sample Collection Plate. Each aliquot was paired with an equal volume of blank PBS to standardize the total volume to 100 μL per well at a 1:1 matrix to PBS ratio. A stop solution comprising 500 μL of acetonitrile with tolbutamide and labetalol at 250 nM each was added to stabilize the samples at TO. The samples were then shaken at 800 rpm for 10 minutes and stored at 2-8° C.
The dialysis procedure included assembling the dialysis device according to the manufacturer's specifications, loading the matrix aliquots into the donor side of the dialysis wells, and conducting the dialysis under a humidified atmosphere with 5% CO2 at 37° C. for 4 hours.
Post-dialysis, 50 μL samples were collected from both the receiver and donor sides into new 96-well plates. Volumes were adjusted to 100 μL by adding an equivalent amount of the opposite blank matrix or PBS. The samples were prepared for LC-MS/MS analysis after thorough vertexing and centrifugation. Blank control samples were prepared and processed similarly to mirror the test conditions.
Data analysis involved calculating the percentages of undiluted unbound and bound fractions, and recovery of the compounds.

A short description of data set [2]: in vivo. The settings on record: male, C57BL/6J, mouse, po, 5 mg/kg. The method, then: Male C57BL/6J mouse was use in the in vivo distribution assay. The sample of brain, spinal cord and serum were collected for the drug distribution calculation.
Before commencing the study, the mice were acclimated to the test facility for at least 3 days. During this period, their general health was assessed by veterinary staff or other authorized personnel. The mice were housed in groups of up to four per cage in polysulfone cages, using either certified aspen shaving bedding or corncob bedding. This bedding was regularly tested for environmental contaminants by the manufacturer. The facility's environment was carefully controlled to maintain a temperature range of 20-26° C., relative humidity between 40 to 70%, and a 12-hour light/12-hour dark cycle, although this cycle can be interrupted for study-related activities. Temperature and humidity were continuously monitored by the Vawasala ViewLinc Monitoring system.
For dosing, an appropriate amount of the compounds was accurately weighed and mixed with a suitable volume of vehicle to achieve a clear solution. This process may require vertexing or sonication in a water bath. The animals were dosed within four hours of formulation preparation. Samples from each formulation were then collected for dose validation using either LC/UV or LC-MS/MS analysis.
Oral gavage was employed for dosing following the facility's SOPs, with the dose volume based on the animal's body weight measured on the morning of the dosing day.
Blood collections were performed from the saphenous vein or another suitable site, with approximately 0.1 mL collected per time point into pre-chilled commercial EDTA-K2 tubes. The samples were kept on wet ice until centrifugation at 4° C. and 3,200 g for 10 minutes. The plasma was then transferred into pre-labeled 96-well plates or polypropylene tubes, quick-frozen over dry ice, and stored at −60° C. or lower until LC-MS/MS analysis. […]
We calculated AUC ratio from the equation AUC ratio=Tissue AUC0-last/plasma AUC0-last. […]

For data set [3], the system named is plasma proteins. Briefly: in vitro. The following applies: male, C57BL/6J, mouse, pH 7.4. As for the experimental part: (§1) The experiment utilized a HT-Dialysis plate (HTD 96 b) and a dialysis membrane with a molecular weight cutoff of 12-14 kDa. The plasma was derived from male C57BL/6J mice, treated with EDTA-K2 as an anticoagulant. The experimental procedure commenced with plasma thawing under cold tap water, followed by centrifugation at 3220×g for 5 minutes to eliminate clots, and pH adjustment to 7.4+0.1.
(§2) Dialysis membranes were initially hydrated in ultra-pure water for about one hour and then treated in a 20:80 ethanol-water mixture for 20 minutes. These prepared membranes could be used immediately or stored at 2-8° C. for up to a month. Membranes were rinsed in ultra-pure water before use.
(§3) Test and control compounds were prepared at a 400 µM concentration by diluting stock solutions with DMSO. Working solutions were further diluted to create 2 μM loading matrix solutions, which were thoroughly mixed. In the assay, 50 μL aliquots of these solutions were dispensed in triplicate into a Sample Collection Plate, balanced with blank PBS to a final volume of 100 µL per well. A stop solution containing acetonitrile, tolbutamide, and labetalol was added, and samples were mixed and cooled at 2 to 8° C.
(§4) During the dialysis, 100 μL aliquots from the loading matrix were placed in the dialysis well's donor side, matched with an equal volume of PBS on the receiver side, and incubated at 37° C. for 4 hours. Post-dialysis, samples from both sides were collected, balanced to 100 μL with corresponding blank fluids, treated with stop solution, vortexed, and centrifuged to prepare for LC-MS/MS analysis.
(§5) Data analysis involved calculating the percentages of Unbound, Bound, and Recovery of the compounds post-dialysis. % Unbound was calculated as the ratio of the compound's peak area on the receiver side to its internal standard, reflecting the fraction that crossed the membrane. % Bound was the complement of % Unbound, representing the fraction retained on the donor side. % Recovery was determined from the peak area ratios on both sides of the membrane, assessing the dialysis efficiency in retaining the compound. These metrics provided insights into the compound's free, bound, and recoverable quantities, elucidating its behavior in the dialysis system.

Data set [4] is described as follows: in vitro. The following applies: male, C57BL/6J, mouse, plasma, pH 7.4. The method, then: as §1, §2, §3, §4, §5
For data set [5] the following is noted: mouse, in vivo, po, 1 mg/kg.
Description: Initially, mice were acclimatized to the testing environment for 8 hours the day before the experiment, followed by at least 2 hours of habituation on the day of the test. The mice were then grouped randomly based on their body weight into six per group, ensuring a balanced distribution for the administration of the drug, which was dissolved in 20% HP-β-CD in water.
The locomotor activity was monitored by placing the mice in the center of a test box, with a video tracking system measuring the distance traveled every 5 minutes for 60 minutes. The testing began at T=0 minutes, immediately after administering the vehicle or compounds, and concluded at T=60 minutes. For data analysis, Prism 8.3.0 software was utilized, employing Two-way ANOVA followed by Bonferroni's multiple comparison test to analyze distance variations across different time points and One-way ANOVA followed by Dunnett's multiple comparisons test for assessing the total distance covered by the groups. A significance level of p<0.05 was established for determining significant differences.
Data set [6] has as its system MC38 tumor. The method, then:
The cells in exponential growth phase were harvested and quantitated by cell counter before tumor inoculation. […] The date of randomization was denoted as day 0.
After tumor cells inoculation, the animals were checked daily for morbidity and mortality. […] Mortality and observed clinical signs were recorded for individual animals in detail. […] Dosing as well as tumor and body weight measurements were conducted in a Laminar Flow Cabinet. The body weights and tumor volumes were measured by using StudyDirector™ software (version 3.1.399.19).

Data set [7] has as its target P-glycoprotein (P-gp) (Homo sapiens, UniProt P08183). Briefly: in vitro. The following applies: MDCK-MDR1. As for the experimental part: MDR1-MDCK II cells (obtained from Piet Borst at the Netherlands Cancer Institute) were seeded onto Polycarbonate membranes (PC) in 96-well insert systems at 3.33×10^5 cells/mL until to 4-7 days for confluent cell monolayer formation.
Selected α2AR agonist from table 3s were diluted with the transport buffer (HBSS with 10.0 mM Hepes, pH7.4) from DMSO stock solution to a concentration of 2 μM (DMSO<1%) and applied to the apical or basolateral side of the cell monolayer. […] Permeation of the test compounds from A to B direction and/or B to A direction was determined in duplicate. Digoxin was tested at 10.0 μM from A to B direction and B to A direction in duplicate. The plate was incubated for 2.5 hours in CO2 incubator at 37.0±1.0° C., with 5.0% CO2 at saturated humidity without shaking. In addition, the efflux ratio of each compound was also determined. Test and reference compounds were quantified by LC/MS/MS analysis based on the peak area ratio of analyte/IS.
After transport assay, lucifer yellow rejection assay was applied to determine the cell monolayer integrity. Buffers were removed from both apical and basolateral chambers, followed by the addition of 75 μL of 100 μM lucifer yellow in transport buffer and 250 μL transport buffer in apical and basolateral chambers, respectively. The plate was incubated for 30 minutes at 37.0° C. with 5.0% CO2 and 95.0% relative humidity without shaking. After 30 minutes incubation, 20 μL of lucifer yellow samples were taken from the apical sides, followed by the addition of 60 μL of transport Buffer. And then 80 μL of lucifer yellow samples were taken from the basolateral sides. The relative fluorescence unit (RFU) of lucifer yellow was measured at 425/528 nm (excitation/emission) with an Envision plate reader.
The apparent permeability coefficient Papp (cm/s) was calculated using the equation: […]
wherein dCr/dt is the cumulative concentration of compound in the receiver chamber as a function of time (μM/s); Vr is the solution volume in the receiver chamber (0.075 mL on the apical side, 0.25 mL on the basolateral side); A is the surface area for the transport, i.e. 0.143 cm2 for the area of the monolayer; and C0 is the initial concentration in the donor chamber (μM).
The efflux ratio was calculated using the equation: […]

Setting [8] is: D17, G2: 5 mg/kg p.o. QD Day 0~Day 3, then 2 mg/kg QD Day 4~Day 17.

Where a name gives a salt, the structure may show the parent alone.

Chain of P-glycoprotein (P-gp) (P08183 whole entry): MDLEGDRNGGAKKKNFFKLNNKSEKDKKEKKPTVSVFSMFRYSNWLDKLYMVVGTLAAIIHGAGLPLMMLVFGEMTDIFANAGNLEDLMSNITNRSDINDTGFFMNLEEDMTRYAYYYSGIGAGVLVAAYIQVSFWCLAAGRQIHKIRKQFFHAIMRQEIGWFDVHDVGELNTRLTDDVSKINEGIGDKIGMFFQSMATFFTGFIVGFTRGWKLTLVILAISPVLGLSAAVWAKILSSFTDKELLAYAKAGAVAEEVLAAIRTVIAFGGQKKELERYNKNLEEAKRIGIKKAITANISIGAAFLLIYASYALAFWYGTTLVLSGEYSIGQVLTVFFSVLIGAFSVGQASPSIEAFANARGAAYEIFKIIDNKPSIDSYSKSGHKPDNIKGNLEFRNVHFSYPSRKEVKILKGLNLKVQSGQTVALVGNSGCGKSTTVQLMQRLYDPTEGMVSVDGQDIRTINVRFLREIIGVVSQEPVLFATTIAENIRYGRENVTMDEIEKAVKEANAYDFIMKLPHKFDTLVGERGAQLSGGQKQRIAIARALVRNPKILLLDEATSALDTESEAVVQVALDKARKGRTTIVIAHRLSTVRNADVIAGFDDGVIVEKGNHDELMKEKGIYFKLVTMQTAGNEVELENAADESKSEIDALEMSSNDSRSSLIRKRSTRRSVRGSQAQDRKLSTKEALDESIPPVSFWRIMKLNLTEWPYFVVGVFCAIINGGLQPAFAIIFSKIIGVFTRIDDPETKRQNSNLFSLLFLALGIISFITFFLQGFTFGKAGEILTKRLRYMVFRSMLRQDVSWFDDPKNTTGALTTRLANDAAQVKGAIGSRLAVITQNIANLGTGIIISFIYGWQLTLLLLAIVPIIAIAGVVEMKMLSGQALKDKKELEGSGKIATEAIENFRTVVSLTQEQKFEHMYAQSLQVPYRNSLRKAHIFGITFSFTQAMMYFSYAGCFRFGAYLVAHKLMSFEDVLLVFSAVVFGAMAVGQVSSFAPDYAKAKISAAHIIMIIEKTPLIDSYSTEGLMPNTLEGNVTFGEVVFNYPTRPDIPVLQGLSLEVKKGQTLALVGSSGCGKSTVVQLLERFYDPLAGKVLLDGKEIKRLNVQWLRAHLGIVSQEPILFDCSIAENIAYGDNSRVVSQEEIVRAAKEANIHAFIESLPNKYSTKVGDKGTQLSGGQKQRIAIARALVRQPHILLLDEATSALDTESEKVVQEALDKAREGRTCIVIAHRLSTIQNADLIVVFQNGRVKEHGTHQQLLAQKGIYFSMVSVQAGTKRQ

For orientation: fraction unbound means the share of the substance not bound to proteins or other matrix. A lower fraction unbound goes with little free substance. For `Clc1cccc(Cl)c1N=C1NCCN1` [Clonidine HCl, clonidine HCl], the recovery at 4 h, 2 μM was 105% in data set [1] and 93.2% in data set [3]. In addition, the “% Undiluted Unbound (n = 3)” value in data set [1] (4 h, 2 μM) worked out at 23.0%. The Kp in data set [2] amounted to 2.27. Besides, in data set [2], the Kp uu turned out to be 0.739. The fraction unbound at 4 h, 2 μM in data set [4] amounted to 0.708.
As for `Clc1cccc(Cl)c1N=C1NCCN1` [Clonidine, clonidine], in data set [5], the “sedation (total distance travelled 0-60 min)” value is reported as “significant sedation”. In data set [6] (setting [8]), the “T/C (%)” value was found to be 27.38%, the “TGI (%)” value is 72.62% and the “Tumor volume (mm^3) (mean ± SEM)” value was 766.52 ± 147.17 mm^3. In data set [6] (G2 group, 5 mg/mL, Day 0-3, p.o.), the “state of mice at high dose” value is reported as “poor state of mice”.
Take `Cc1cccc([C@H](C)c2cnc[nH]2)c1C` [Dexmedetomidine HCl, dexmedetomidine HCl]: the recovery at 4 h, 2 μM in data set [1] is 93.8%; in data set [3], 88.9%. For the same compound, in data set [1] (4 h, 2 μM), the “% Undiluted Unbound (n = 3)” value stood at 6.3%. Also, in data set [2], the Kp came to 1.26. Further, in data set [4], the fraction unbound at 4 h, 2 μM was found to be 0.068.
On to `Oc1ccc2c(c1)C(Cc1c[nH]cn1)CC2` (centres unmarked) [Fadolmidine, reference compound], for which the Efflux ratio in data set [7] was found to be 0.80.
`CC(C)NCC(O)COc1cccc2ccccc12` (centres unmarked) [Propranolol, propranolol] had a recovery at 4 h, 2 μM in data set [1] of 109%. In data set [1] (4 h, 2 μM), the “% Undiluted Bound (n = 3)” value is 97.4% and the “% Undiluted Unbound (n = 3)” value was found to be 2.6%.
